{
  "source": "patent US5093359A",
  "about": "“Primycin components and process for the separation of the antibiotic complex” (priority 1984, dated 1992)",
  "key": {"[1]": {"system": "Staphylococcus aureus CCM.885.", "assay": "MIC, strain 1", "type": "cell-based", "conditions": "read-out: MIC"}, "[2]": {"system": "Staphylococcus aureus DSM.20231", "assay": "MIC, strain 2", "type": "cell-based", "conditions": "Staphylococcus aureus, DSM.20231, 24 h, strain 2, Table O, 24 hours; read-out: MIC"}, "[3]": {"system": "Staphylococcus aureus CCM.2317.", "assay": "MIC, strain 3", "type": "cell-based", "conditions": "read-out: MIC"}, "[4]": {"system": "Staphylococcus aureus CCM.2326.", "assay": "MIC, strain 4", "type": "cell-based", "conditions": "read-out: MIC"}, "[5]": {"system": "Staphylococcus aureus CCM.2514", "assay": "MIC, strain 5", "type": "cell-based", "conditions": "read-out: MIC"}, "[6]": {"system": "Staphylococcus aureus CCM.2515.", "assay": "MIC, strain 6", "type": "cell-based", "conditions": "read-out: MIC"}, "[7]": {"system": "Staphylococcus epidermidis CCM.2271", "assay": "MIC, strain 7", "type": "cell-based", "conditions": "read-out: MIC"}, "[8]": {"system": "Staphylococcus aureus Smith", "assay": "MIC, strain 8", "type": "cell-based", "conditions": "read-out: MIC"}, "[9]": {"system": "Streptococcus faecalis CCM.1875.", "assay": "MIC, strain 9", "type": "cell-based", "conditions": "Enterococcus faecalis, read-out: MIC"}, "[10]": {"system": "Streptococcus agalactiae CCM.5153.", "assay": "MIC, strain 10", "type": "cell-based", "conditions": "read-out: MIC"}, "[11]": {"system": "Streptococcus agalactiae CCM.5534.", "assay": "MIC, strain 11", "type": "cell-based", "conditions": "Streptococcus agalactiae, CCM.5534., read-out: MIC"}, "[12]": {"system": "Streptococcus disgalactiae ATTC.9926", "assay": "MIC, strain 12", "type": "cell-based", "conditions": "ATTC.9926, 24 h, strain 12, Table O, 24 hours"}, "[13]": {"system": "Bacillus subtilis ATTC.6633.", "assay": "MIC, strain 13", "type": "cell-based", "conditions": "24 h, strain 13, Table O, 24 hours, read-out: MIC"}, "[14]": {"system": "Bacillus cereus CCM.2010.", "assay": "MIC, strain 14", "type": "cell-based", "conditions": "24 h, strain 14, Table O, 24 hours, read-out: MIC"}, "[15]": {"system": "Bacillus licheniformis CCM.2182.", "assay": "MIC, strain 15", "type": "cell-based", "conditions": "read-out: MIC"}, "[16]": {"system": "Bacillus licheniformis CCM.2205.", "assay": "MIC, strain 16", "type": "cell-based", "conditions": "read-out: MIC"}, "[17]": {"system": "Bacillus subtilis CCM.1718.", "assay": "MIC, strain 17", "type": "cell-based", "conditions": "read-out: MIC"}, "[18]": {"system": "Listeria monocytogenes CCM.5576.", "assay": "MIC, strain 18", "type": "cell-based", "conditions": "read-out: MIC"}, "[19]": {"system": "Micrococcus flavus ATCC.10240.", "assay": "MIC, strain 19", "type": "cell-based", "conditions": "read-out: MIC"}, "[20]": {"system": "Micrococcus luteus DSM.20030.", "assay": "MIC, strain 20", "type": "cell-based", "conditions": "read-out: MIC"}, "[21]": {"system": "Sporosarcina ureae DSM.317", "assay": "MIC, strain 21", "conditions": "DSM.317, 24 h", "experimental": "(§1) The antimicrobial activity of the primycin complex and the components thereof is tested on different microorganism strains.\n(§2) (Inoculation: 5 × 10^5 /ml, incubation at 37 C.° for"}, "[22]": {"system": "Pseudomonas aeruginosa CCM.1960.", "assay": "MIC, strain 22", "conditions": "24 h", "experimental": "as §1, §2"}, "[23]": {"system": "Pseudomonas fluorescens CCM.2115.", "assay": "MIC, strain 23", "conditions": "24 h", "experimental": "as §1, §2"}, "[24]": {"system": "Pseudomonas acidoverans CCM.283", "assay": "MIC, strain 24", "conditions": "CCM.283, 24 h", "experimental": "as §1, §2"}, "[25]": {"system": "Proteus vulgaris CCM.1799.", "assay": "MIC, strain 25", "conditions": "24 h", "experimental": "as §1, §2"}, "[26]": {"system": "Shigella sonnei CCM.1373.", "assay": "MIC, strain 26", "conditions": "24 h", "experimental": "(§3) The table contains the MIC values (/μg/ml) measured on human pathogenic polyresistant strains.\nas §1, §2"}, "[27]": {"system": "Salmonella typhimurium CCM.5445.", "assay": "MIC, strain 27", "conditions": "Salmonella enterica, 24 h", "experimental": "as §3, §1, §2"}, "[28]": {"system": "Escherichia coli DSM.30038.", "assay": "MIC, strain 28", "conditions": "24 h", "experimental": "as §3, §1, §2"}},
  "note": "Like-named read-outs stand apart in the source and are kept apart here.",
  "data": [
    {"smiles": "CCCCC1C(=O)OC(C(C)C(O)CCCNC(=N)N)C(C)C=C(C)CCCCC(O)CC(O)CC(O)CC(O)CC(O)CC=C(C)C(O)CCCC(O)CCCC(O)CCC(C)C1O", "note": "(centres unmarked) [B1, hydropricin]", "values": [
      {"measurement": "MIC", "setting": "[1]; strain 1, Table O, 24 hours", "value": 0.5, "unit": "mg/L"},
      {"measurement": "MIC", "setting": "[1]; strain 1, Tables I-XIII, 25 hours", "value": 0.5, "unit": "mg/L"},
      {"measurement": "MIC", "setting": "[2]", "value": 0.1, "unit": "mg/L"},
      {"measurement": "MIC", "setting": "[3]; strain 3, Table O, 24 hours", "value": 0.1, "unit": "mg/L"},
      {"measurement": "MIC", "setting": "[3]; strain 3, Tables I-XIII, 25 hours", "value": 0.1, "unit": "mg/L"},
      {"measurement": "MIC", "setting": "[4]; strain 4, Table O, 24 hours", "value": 0.25, "unit": "mg/L"},
      {"measurement": "MIC", "setting": "[4]; strain 4, Tables I-XIII, 25 hours", "value": 0.25, "unit": "mg/L"},
      {"measurement": "MIC", "setting": "[5]; CCM.2514, strain 5, Table O, 24 hours", "value": 0.1, "unit": "mg/L"},
      {"measurement": "MIC", "setting": "[5]; CCM.2514, strain 5, Tables I-XIII, 25 hours", "value": 0.1, "unit": "mg/L"},
      {"measurement": "MIC", "setting": "[6]; strain 6, Table O, 24 hours", "value": 0.1, "unit": "mg/L"},
      {"measurement": "MIC", "setting": "[6]; strain 6, Tables I-XIII, 25 hours", "value": 0.1, "unit": "mg/L"},
      {"measurement": "MIC", "setting": "[7]; CCM.2271, strain 7, Table O, 24 hours", "value": 0.25, "unit": "mg/L"},
      {"measurement": "MIC", "setting": "[7]; CCM.2271, strain 7, Tables I-XIII, 25 hours", "value": 0.25, "unit": "mg/L"},
      {"measurement": "MIC", "setting": "[8]; strain 8, Table O, 24 hours", "value": 0.5, "unit": "mg/L"},
      {"measurement": "MIC", "setting": "[8]; strain 8, Tables I-XIII, 25 hours", "value": 0.5, "unit": "mg/L"},
      {"measurement": "MIC", "setting": "[9]; strain 9, Table O, 24 hours", "value": 2.5, "unit": "mg/L"},
      {"measurement": "MIC", "setting": "[9]; strain 9, Tables I-XIII, 25 hours", "value": 2.5, "unit": "mg/L"},
      {"measurement": "MIC", "setting": "[10]; strain 10, Table O, 24 hours", "value": 0.5, "unit": "mg/L"},
      {"measurement": "MIC", "setting": "[10]; strain 10, Tables I-XIII, 25 hours", "value": 0.5, "unit": "mg/L"},
      {"measurement": "MIC", "setting": "[11]; 24 h, strain 11, Table O, 24 hours", "value": 1, "unit": "mg/L"},
      {"measurement": "MIC", "setting": "[11]; 25 h, strain 11, Tables I-XIII, 25 hours", "value": 1, "unit": "mg/L"},
      {"measurement": "MIC", "setting": "[12]", "value": 2.5, "unit": "mg/L"},
      {"measurement": "MIC", "setting": "[13]", "value": 0.1, "unit": "mg/L"},
      {"measurement": "MIC", "setting": "[14]", "value": 0.25, "unit": "mg/L"},
      {"measurement": "MIC", "setting": "[15]; strain 15, Table O, 24 hours", "value": 0.25, "unit": "mg/L"},
      {"measurement": "MIC", "setting": "[15]; strain 15, Tables I-XIII, 25 hours", "value": 0.25, "unit": "mg/L"},
      {"measurement": "MIC", "setting": "[16]; strain 16, Table O, 24 hours", "value": 0.25, "unit": "mg/L"},
      {"measurement": "MIC", "setting": "[16]; strain 16, Tables I-XIII, 25 hours", "value": 0.25, "unit": "mg/L"},
      {"measurement": "MIC", "setting": "[17]; 24 h, strain 17, Table O, 24 hours", "value": 0.25, "unit": "mg/L"},
      {"measurement": "MIC", "setting": "[17]; 25 h, strain 17, Tables I-XIII, 25 hours", "value": 0.25, "unit": "mg/L"},
      {"measurement": "MIC", "setting": "[18]; strain 18, Table O, 24 hours", "value": 0.25, "unit": "mg/L"},
      {"measurement": "MIC", "setting": "[18]; strain 18, Tables I-XIII, 25 hours", "value": 0.25, "unit": "mg/L"},
      {"measurement": "MIC", "setting": "[19]; strain 19, Table O, 24 hours", "value": 0.05, "unit": "mg/L"},
      {"measurement": "MIC", "setting": "[19]; strain 19, Tables I-XIII, 25 hours", "value": 0.05, "unit": "mg/L"},
      {"measurement": "MIC", "setting": "[20]; strain 20, Table O, 24 hours", "value": 0.075, "unit": "mg/L"},
      {"measurement": "MIC", "setting": "[20]; strain 20, Tables I-XIII, 25 hours", "value": 0.075, "unit": "mg/L"},
      {"measurement": "MIC", "setting": "[21]", "value": 0.025, "unit": "mg/L"},
      {"measurement": "MIC", "setting": "[22]", "value": 25, "unit": "mg/L"},
      {"measurement": "MIC", "setting": "[23]", "value": 25, "unit": "mg/L"},
      {"measurement": "MIC", "setting": "[24]", "value": 25, "unit": "mg/L"},
      {"measurement": "MIC", "setting": "[25]", "value": 50, "unit": "mg/L"},
      {"measurement": "MIC", "setting": "[26]", "value": 50, "unit": "mg/L"},
      {"measurement": "MIC", "setting": "[27]", "value": 50, "unit": "mg/L"},
      {"measurement": "MIC", "setting": "[28]", "value": 50, "unit": "mg/L"}
    ]}
  ]
}
